# Test results from ChEMBL document CHEMBL4393732, “Influence of nisin hinge-region variants on lantibiotic immunity and resistance proteins” (Bioorg Med Chem, 2019).
# Active and inactive are the calls of the source. No cut-off for these calls is given here.
# Experiments:
# Lactococcus lactis [1] = experiment: Growth inhibition of nisin-sensitive Lactococcus lactis NZ9000Cm incubated for 5 hrs by optical density based plate reader assay; assay type: functional, organism-based
# [2] = (§1) Inhibition of Lactococcus lactis ATP-binding cassette transporter NisFEG harboring in Lactococcus lactis NZ9000 assessed as decrease in NisFEG induced resistance measured as increase in growth inhibition incubated for 5 hrs by optical density based plate reader assay
# Lactococcus lactis [3] = experiment: Induction of pore formation in Lactococcus lactis NZ9000Cm assessed as increase in florescence intensity at 3 times antibacterial IC50 measured after 200 secs by sytox green-based fluorescence assay; assay type: functional, organism-based
# [4] = (§2) Resistance ratio of IC50 for inhibition of Streptococcus agalactiae COH1 NsrFP transfected in Lactococcus lactis NZ9000 assessed as decrease in NsrFP induced resistance measured as increase in growth inhibition to IC50 for growth inhibition of nisin-sensitive Lactococcus lactis NZ9000Cm incubated for 5 hrs by optical density based plate reader assay
# [5] = as §2, with “for Inhibition” for “for inhibition”, “of Lactococcus lactis Nis1 harboring” for “of Streptococcus agalactiae COH1 NsrFP transfected”, “in Nis1” for “in NsrFP”
# [6] = Inhibition of Streptococcus agalactiae COH1 NSR transfected in Lactococcus lactis NZ9000 assessed as decrease in NSR-induced resistance by measuring increase in growth inhibition incubated for 5 hrs by optical density based plate reader assay
# [7] = Inhibition of Lactococcus lactis Nis1 harboring in Lactococcus lactis NZ9000 assessed as decrease in Nis1 induced resistance measured as increase in growth inhibition incubated for 5 hrs by optical density based plate reader assay
# [8] = as §1, with “Resistance ratio of IC50 for inhibition” for “Inhibition”, “inhibition to IC50 for growth inhibition of nisin-sensitive Lactococcus lactis NZ9000Cm” for “inhibition”
# [9] = Inhibition of Streptococcus agalactiae COH1 NsrFP transfected in Lactococcus lactis NZ9000 assessed as decrease in NsrFP-induced resistance by measuring increase in growth inhibition incubated for 5 hrs by optical density based plate reader assay
# [10] = as §2, with “NSR” for “NsrFP”
# Lactococcus lactis [11] = experiment: Induction of pore formation in Lactococcus lactis NZ9000Cm assessed as increase in florescence intensity at 3 times antibacterial IC50 measured after 200 secs by sytox green-based fluorescence assay relative to control; assay type: functional
Compound,IC50 (Lactococcus lactis [1]) [nM],IC50 [2] [nM],Activity (Lactococcus lactis [3]),Ratio IC50 [4],Ratio IC50 [5],IC50 [6] [nM],IC50 [7] [nM],Ratio IC50 [8],IC50 [9] [nM],Ratio IC50 [10],Activity (Lactococcus lactis [11]) [%]
C=C(NC(=O)[C@@H](NC(=O)[C@H](Cc1cnc[nH]1)NC(=O)[C@@H](NC(=O)[C@H](CO)NC(=O)[C@@H]1CS[C@@H](C)[C@@H]2NC(=O)[C@H](C)NC(=O)[C@@H](NC(=O)[C@H](CC(N)=O)NC(=O)[C@@H]3CS[C@@H](C)[C@H](NC(=O)[C@H](CCCCN)NC(=O)[C@@H]4CS[C@@H](C)[C@H](NC(=O)[C@@H]5CSC[C@H](NC(=O)/C(=C/C)NC(=O)[C@@H](N)[C@@H](C)CC)C(=O)N[C@@H]([C@@H](C)CC)C(=O)NC(=C)C(=O)N[C@@H](CC(C)C)C(=O)N5)C(=O)N5CCC[C@H]5C(=O)NCC(=O)N4)C(=O)NCC(=O)N[C@@H](C)C(=O)N[C@@H](CC(C)C)C(=O)N[C@@H](CCSC)C(=O)NCC(=O)N3)[C@H](C)SC[C@H](NC2=O)C(=O)N[C@@H](Cc2cnc[nH]2)C(=O)N1)[C@@H](C)CC)C(C)C)C(=O)N[C@@H](CCCCN)C(=O)O,43.4,72.1,inactive,4.9,2.5,221,109,1.66,213,5.09,
C=C(NC(=O)[C@@H](NC(=O)[C@H](Cc1cnc[nH]1)NC(=O)[C@@H](NC(=O)[C@H](CO)NC(=O)[C@@H]1CS[C@@H](C)[C@@H]2NC(=O)[C@H](C)NC(=O)[C@@H](NC(=O)[C@@H](NC(=O)[C@@H](NC(=O)[C@H](CCCCN)NC(=O)[C@H](CCSC)NC(=O)[C@H](CC(N)=O)NC(=O)[C@@H]3CS[C@@H](C)[C@H](NC(=O)[C@H](CCCCN)NC(=O)[C@@H]4CS[C@@H](C)[C@H](NC(=O)[C@@H]5CSC[C@H](NC(=O)/C(=C/C)NC(=O)[C@@H](N)[C@@H](C)CC)C(=O)N[C@@H]([C@@H](C)CC)C(=O)NC(=C)C(=O)N[C@@H](CC(C)C)C(=O)N5)C(=O)N5CCC[C@H]5C(=O)NCC(=O)N4)C(=O)NCC(=O)N[C@@H](C)C(=O)N[C@@H](CC(C)C)C(=O)N[C@@H](CCSC)C(=O)NCC(=O)N3)[C@@H](C)CC)C(C)C)[C@H](C)SC[C@H](NC2=O)C(=O)N[C@@H](Cc2cnc[nH]2)C(=O)N1)[C@@H](C)CC)C(C)C)C(=O)N[C@@H](CCCCN)C(=O)O,22.3,36.9,Active,1.99,3.29,64.8,73.2,1.66,44.4,2.91,
C=C(NC(=O)[C@@H](NC(=O)[C@H](Cc1cnc[nH]1)NC(=O)[C@@H](NC(=O)[C@H](CO)NC(=O)[C@@H]1CS[C@@H](C)[C@@H]2NC(=O)[C@H](C)NC(=O)[C@@H](NC(=O)[C@H](CCCCN)NC(=O)[C@H](CCSC)NC(=O)[C@@H](NC(=O)[C@@H](NC(=O)[C@H](CC(N)=O)NC(=O)[C@@H]3CS[C@@H](C)[C@H](NC(=O)[C@H](CCCCN)NC(=O)[C@@H]4CS[C@@H](C)[C@H](NC(=O)[C@@H]5CSC[C@H](NC(=O)/C(=C/C)NC(=O)[C@@H](N)[C@@H](C)CC)C(=O)N[C@@H]([C@@H](C)CC)C(=O)NC(=C)C(=O)N[C@@H](CC(C)C)C(=O)N5)C(=O)N5CCC[C@H]5C(=O)NCC(=O)N4)C(=O)NCC(=O)N[C@@H](C)C(=O)N[C@@H](CC(C)C)C(=O)N[C@@H](CCSC)C(=O)NCC(=O)N3)[C@@H](C)CC)C(C)C)[C@H](C)SC[C@H](NC2=O)C(=O)N[C@@H](Cc2cnc[nH]2)C(=O)N1)[C@@H](C)CC)C(C)C)C(=O)N[C@@H](CCCCN)C(=O)O,8.17,107,,14.8,9.46,102,77.3,13.1,121,12.4,15
